Measured values as given in EP0252380B1, “Antibiotic LL-E19020 alpha and beta” (AMERICAN CYANAMID COMPANY, priority 1986, dated 1988).
Marks after values point to notes of the source that are not given here.

How the values were obtained:
[1] = Weight gains and feed efficiency in broiler chicks treated with E19020 alpha (Table IX A); format: in vivo; conditions: for FEED/GAIN 0-3 WEEKS: control 1.43; for FEED/GAIN 0-7 WEEKS: control 1.99; for WEIGHT GAIN IN GRAMS 0-3 WEEKS: control 608; for WEIGHT GAIN IN GRAMS 0-7 WEEKS: control 2145
Experimental: Five male and five female one day old Peterson X Arbor Acres chicks are allotted to starter battery cages by weight. Cages are randomized to treatment groups with seven replicates per treatment. […] The positive standard is penicillin at 200 ppm. Diets are prepared weekly.

Staphylococcus aureus = test: Minimum inhibitory concentration by agar dilution (Table VI); format: cell-based; conditions: 7 strains tested
Babesia bovis = test: Anti-Babesia bovis activity, 3H hypoxanthine incorporation in in vitro culture; conditions: parasitemia of 4%

## C/C=C\C=C\[C@@H]1O[C@](O)([C@H](CO[C@H]2C[C@@H](OC)[C@@H](O[C@@H]3C[C@@H](OC)[C@@H](O[C@H]4C[C@H](OC)[C@H](O)[C@H](C)O4)[C@H](C)O3)[C@@H](C)O2)C(=O)NC/C=C/C=C(\C)[C@@H](OC)[C@H](C)[C@H]2C[C@H](O)[C@H](/C=C/C=C/C=C/C(=O)O)O2)[C@H](OC(=O)Cc2ccccc2)[C@H](O)C1(C)C [LL-E19020 alpha]
[1]; 6.25 PPM
  FEED/GAIN % IMPROVEMENT OVER CONTROLS 0-3 WEEKS: 3.5%
  FEED/GAIN % IMPROVEMENT OVER CONTROLS 0-7 WEEKS: 5.0%
  WEIGHT GAIN % IMPROVEMENT OVER CONTROLS 0-3 WEEKS: 4.4%
  WEIGHT GAIN % IMPROVEMENT OVER CONTROLS 0-7 WEEKS: 1.8%
  FEED/GAIN 0-3 WEEKS: 1.38**
  FEED/GAIN 0-7 WEEKS: 1.89**
  WEIGHT GAIN IN GRAMS 0-3 WEEKS: 635* GRAMS
  WEIGHT GAIN IN GRAMS 0-7 WEEKS: 2183 GRAMS
[1]; 12.5 PPM
  FEED/GAIN % IMPROVEMENT OVER CONTROLS 0-3 WEEKS: 3.5%
  FEED/GAIN % IMPROVEMENT OVER CONTROLS 0-7 WEEKS: 4.0%
  WEIGHT GAIN % IMPROVEMENT OVER CONTROLS 0-3 WEEKS: 6.3%
  WEIGHT GAIN % IMPROVEMENT OVER CONTROLS 0-7 WEEKS: 2.5%
  FEED/GAIN 0-3 WEEKS: 1.38**
  FEED/GAIN 0-7 WEEKS: 1.91**
  WEIGHT GAIN IN GRAMS 0-3 WEEKS: 647* GRAMS
  WEIGHT GAIN IN GRAMS 0-7 WEEKS: 2198 GRAMS
[1]; 25 PPM
  FEED/GAIN % IMPROVEMENT OVER CONTROLS 0-3 WEEKS: 3.5%
  FEED/GAIN % IMPROVEMENT OVER CONTROLS 0-7 WEEKS: 5.0%
  WEIGHT GAIN % IMPROVEMENT OVER CONTROLS 0-3 WEEKS: 8.4%
  WEIGHT GAIN % IMPROVEMENT OVER CONTROLS 0-7 WEEKS: 5.7%
  FEED/GAIN 0-3 WEEKS: 1.38**
  FEED/GAIN 0-7 WEEKS: 1.89**
  WEIGHT GAIN IN GRAMS 0-3 WEEKS: 659** GRAMS
  WEIGHT GAIN IN GRAMS 0-7 WEEKS: 2267* GRAMS
[1]; 50 PPM
  FEED/GAIN % IMPROVEMENT OVER CONTROLS 0-3 WEEKS: 2.8%
  FEED/GAIN % IMPROVEMENT OVER CONTROLS 0-7 WEEKS: 4.0%
  WEIGHT GAIN % IMPROVEMENT OVER CONTROLS 0-3 WEEKS: 5.6%
  WEIGHT GAIN % IMPROVEMENT OVER CONTROLS 0-7 WEEKS: 2.8%
  FEED/GAIN 0-3 WEEKS: 1.39*
  FEED/GAIN 0-7 WEEKS: 1.91**
  WEIGHT GAIN IN GRAMS 0-3 WEEKS: 642* GRAMS
  WEIGHT GAIN IN GRAMS 0-7 WEEKS: 2206 GRAMS
[1]; 100 PPM
  FEED/GAIN % IMPROVEMENT OVER CONTROLS 0-3 WEEKS: 5.6%
  FEED/GAIN % IMPROVEMENT OVER CONTROLS 0-7 WEEKS: 4.0%
  WEIGHT GAIN % IMPROVEMENT OVER CONTROLS 0-3 WEEKS: 7.3%
  WEIGHT GAIN % IMPROVEMENT OVER CONTROLS 0-7 WEEKS: 2.8%
  FEED/GAIN 0-3 WEEKS: 1.35**
  FEED/GAIN 0-7 WEEKS: 1.91**
  WEIGHT GAIN IN GRAMS 0-3 WEEKS: 652** GRAMS
  WEIGHT GAIN IN GRAMS 0-7 WEEKS: 2204 GRAMS
Staphylococcus aureus
  MIC: ≧ 256 µg/ml
Babesia bovis
  50% inhibitory concentration: 0.625 µg/mL
